{"source": "patent US20230151069A1", "about": "“Cyclic Peptides” (LIFEARC, priority 2020, published 2023)", "key": {"TAP01 (MoG1K) antibody": {"molecular_target": "TAP01 (MoG1K) antibody", "assay": "Thioacetal bridged cyclic peptide binding ELISA with TAP01 antibody", "design": "species or system mouse", "procedure": "(§1) • 1. […] Incubate at 4° C. overnight • 3. Wash the plate (NUNC 384 program) • 4. […] Incubate at RT for 1 hour • 6. Wash the plate (NUNC 384 program) • 7. […] Incubate at 4° C. overnight • 9. Wash the plate (NUNC 384 program) • 10. […] Transfer 30 μL/well onto the assay plate • 12. Incubate at 37° C. for 1 hour • 13. Wash the plate (NUNC 384 program) • 14. […] Incubate at 37° C. for 1 hour 16. Wash the plate (NUNC 384 program) 17. […] Incubate at RT for 10 min in the dark 19.\n(§2) Binding to comparators antibodies was also assessed.\n(§3) Binding to comparator antibodies was also assessed (FIG. 26)."}, "Bapineuzumab": {"tested_on": "Bapineuzumab", "assay": "Cyclic peptide binding ELISA with comparator antibody Bapineuzumab", "procedure": "as §1, §2, §3"}, "Solanezumab": {"tested_on": "Solanezumab", "assay": "Cyclic peptide binding ELISA with comparator antibody Solanezumab", "details": "FIGS. 7, 22", "procedure": "as §1\n(§4) Binding of the TAP01 antibody has been assessed to these thioacetal bridged cyclic peptide variants by ELISA (FIGS. 20-22 and Table 5). Binding to comparators antibodies was also assessed."}, "BAN2401": {"tested_on": "BAN2401", "assay": "Cyclic peptide binding ELISA with comparator antibody BAN2401", "details": "FIGS. 7, 22", "procedure": "as §1, §4"}, "[1]": {"tested_on": "disulphide bridged 1-14 cyclic peptide 3, 12", "details": "mouse 5 (best immune response), FIG. 8", "procedure": "• 1. […] Incubate at 4° C. overnight • 3. Wash the plate (NUNC 384 program) • 4. […] Incubate at RT for 1 hour • 6. Wash the plate (NUNC 384 program) • 7. […] Incubate at 4° C. overnight • 9. Wash the plate (NUNC 384 program) • 10."}, "pE3-42 amyloid peptide": {"tested_on": "pE3-42 amyloid peptide", "assay": "Immunisation with disulphide bridged peptide, sera pE3-42 peptide binding ELISA", "type": "in vivo, mice and rabbits", "details": "sera after immunisation with disulphide bridged peptide", "procedure": "• 1. Coat 384-well plate with 30 μL/well of 100 ng/ml PSL amyloid 1-42 peptide (Human-Peptide Specialty Laboratories-CEM1904161) diluted in carb/bicarb buffer • 2. Incubate at 37° C. for 1 hour • 3. Wash the plate (NUNC 384 program) • 4. […] Incubate at 4° C. overnight • 6. Wash the plate (NUNC 384 program) • 7. […] Transfer 30 μL/well onto the assay plate • 10. Incubate at 37° C. for 1 hour • 11. Wash the plate (NUNC 384 program) • 12. […] Incubate at 37° C. for 1 hour • 14. Wash the plate (NUNC 384 program) • 15. […] Incubate at RT for 10 min in the dark • 17. […] Coat 384-well plate with 30 μL/well of 100 ng/ml PSL amyloid pE3-42 peptide (Human-Peptide Specialty Laboratories-CEM062210 Pyr) diluted in carb/bicarb buffer • 2. Incubate at 37° C. for 1 hour • 3. Wash the plate (NUNC 384 program) • 4. […] Incubate at 4° C. overnight • 6. Wash the plate (NUNC 384 program) • 7. […] Transfer 30 μL/well onto the assay plate • 10. Incubate at 37° C. for 1 hour • 11. Wash the plate (NUNC 384 program) • 12. […] Incubate at 37° C. for 1 hour • 14. Wash the plate (NUNC 384 program) • 15. […] Incubate at RT for 10 min in the dark • 17."}, "4-42 amyloid peptide": {"tested_on": "4-42 amyloid peptide", "details": "sera after immunisation with disulphide bridged peptide, ELISA", "procedure": "• 1. […] Wash the plate (NUNC 384 program) • 4. […] Wash the plate (NUNC 384 program) • 7. […] Incubate at 37° C. for 1 hour • 13. Wash the plate (NUNC 384 program) • 14."}, "ProBioDrug 6_1_6": {"tested_on": "ProBioDrug 6_1_6", "assay": "Cyclic peptide binding ELISA with comparator antibody ProBioDrug 6_1_6", "details": "FIG. 7", "procedure": "(§5) • 1. […] Incubate at 4° C. overnight • 3. Wash the plate (NUNC 384 program) • 4. […] Incubate at RT for 1 hour • 6. Wash the plate (NUNC 384 program) • 7. […] Incubate at 4° C. overnight • 9. Wash the plate (NUNC 384 program) • 10. […] Transfer 30 μL/well onto the assay plate • 13. Incubate at 37° C. for 1 hour • 14. Wash the plate (NUNC 384 program) • 15. […] Incubate at 37° C. for 1 hour • 17. Wash the plate (NUNC 384 program) • 18.\nas §1\n(§6) ProBioDrug 6_1_6 (Deposit No. DSM ACC 2924) and ProBioDrug 24_2_3 (Deposit No. DSM ACC 2926) are described in […]."}, "ProBioDrug 24_2_3": {"tested_on": "ProBioDrug 24_2_3", "assay": "Cyclic peptide binding ELISA with comparator antibody ProBioDrug 24_2_3", "details": "FIG. 7", "procedure": "as §5, §1, §6"}, "[2]": {"tested_on": "thioacetal bridged 1-14 cyclic peptide 3,12", "assay": "Immunisation with thioacetal bridged peptide, sera binding ELISA to thioacetal bridged cyclic peptide", "type": "in vivo, rabbits and mice", "procedure": "as §1"}, "[3]": {"assay": "Stability comparison of both versions of the constrained cyclic peptide", "type": "physicochemical", "details": "listed as thioacetal bridged peptide"}, "[4]": {"tested_on": "biotinylated cyclised peptide", "assay": "Sera of actively immunised 5XFAD and Tg4-42 mice, binding ELISA to cyclised peptide", "type": "in vivo, mouse", "details": "FIGS. 32 and 33", "procedure": "as §1\nAnimals (SXFAD and Tg4-42 mice) were immunised with thioacetal bridged cyclic peptide 1-14 and sera were screened for binding to biotinylated cyclised peptide as previously described above."}, "TAP01 antibody": {"tested_on": "TAP01 antibody", "assay": "Proline mutated peptide binding to TAP01 antibody using Biacore T200", "design": "species or system mouse", "details": "Biacore T200, FIG. 23"}}, "note": "Like-named read-outs stand apart in the source and are kept apart here. *1 amine or outer side, *2 acyl side, *3 side chain or, on linkers, in order; H or OH if unused. Where a SMILES comes first, the peptide text is derived from it. Bridges are numbered along the chain shown (N, C = ends). CH2 = C([*:1])[*:2]", "data": [{"compound": "CC(C)[C@H](NC(=O)[C@H](CCC(=O)O)NC(=O)[C@@H]1CSCSC[C@H](N)C(=O)N[C@@H](C)C(=O)N[C@@H](CCC(=O)O)C(=O)N[C@@H](Cc2ccccc2)C(=O)N[C@@H](CCCNC(=N)N)C(=O)N[C@@H](Cc2c[nH]cn2)C(=O)N[C@@H](CC(=O)O)C(=O)N[C@@H](CO)C(=O)NCC(=O)N1)C(=O)N[C@@H](Cc1c[nH]cn1)C(=O)N[C@@H](Cc1c[nH]cn1)C(=O)O", "note": "[1, 10] (H-CAEFRHDSGCEVHH-OH; linker 1-10 via CH2; N-terminus and C-terminus assumed)", "values": [{"measurement": "EC50", "setting": "TAP01 (MoG1K) antibody; TAP01 (MoG1K) binding to thioacetal bridged cyclic peptide variants, Table 7, read-out: EC50", "result": 12, "unit": "nM"}]}, {"compound": "CC(C)[C@H](NC(=O)[C@H](CCC(=O)O)NC(=O)[C@@H]1CSCSC[C@H](N)C(=O)N[C@@H](C)C(=O)N[C@@H](CCC(=O)O)C(=O)N[C@@H](Cc2ccccc2)C(=O)N[C@@H](CCCNC(=N)N)C(=O)N[C@@H](Cc2c[nH]cn2)C(=O)N[C@@H](CC(=O)O)C(=O)N[C@@H](CO)C(=O)NCC(=O)N1)C(=O)N[C@@H](Cc1c[nH]cn1)C(=O)N[C@@H](Cc1c[nH]cn1)C(=O)O", "note": "[Peptide 1, 10] (H-CAEFRHDSGCEVHH-OH; linker 1-10 via CH2; N-terminus and C-terminus assumed)", "values": [{"measurement": "EC50", "setting": "TAP01 (MoG1K) antibody; TAP01 (MoG1K), FIG. 25, unit inferred, read-out: calculated EC50 value", "result": 12, "unit": "nM"}, {"measurement": "binding to comparator antibody Bapineuzumab", "setting": "Bapineuzumab; FIGS. 7, 22, 26, 34", "result": "Binding to the comparator antibody Bapineuzumab was seen"}]}, {"compound": "CC(C)[C@H](NC(=O)[C@H](CCC(=O)O)NC(=O)[C@@H]1CSCSC[C@H](NC(=O)[C@@H](N)CC(=O)O)C(=O)N[C@@H](CCC(=O)O)C(=O)N[C@@H](Cc2ccccc2)C(=O)N[C@@H](CCCNC(=N)N)C(=O)N[C@@H](Cc2c[nH]cn2)C(=O)N[C@@H](CC(=O)O)C(=O)N[C@@H](CO)C(=O)NCC(=O)N1)C(=O)N[C@@H](Cc1c[nH]cn1)C(=O)N[C@@H](Cc1c[nH]cn1)C(=O)O", "note": "[Peptide 2, 10] (H-DCEFRHDSGCEVHH-OH; linker 2-10 via CH2)", "values": [{"measurement": "EC50", "setting": "TAP01 (MoG1K) antibody; TAP01 (MoG1K) binding to thioacetal bridged cyclic peptide variants, Table 5, read-out: EC50", "result": 1.33, "unit": "nM"}, {"measurement": "binding to comparator antibody Bapineuzumab", "setting": "Bapineuzumab; FIGS. 7, 22, 26, 34", "result": "able to bind"}, {"measurement": "binding to comparator antibody Bapineuzumab", "setting": "Bapineuzumab; FIGS. 7, 22, 26, 34, listed as cyclic peptide 2, 10", "result": "Binding to the comparator antibody Bapineuzumab was seen"}, {"measurement": "binding to comparator antibody Solanezumab", "setting": "Solanezumab", "result": "low affinity"}, {"measurement": "binding to comparator antibody BAN2401", "setting": "BAN2401", "result": "low affinity"}]}, {"compound": "DA*CFRHDSGYE*CHH-Biotin (*S—S* bridge) [1-14 cyclic peptide (disulphide bridged)]", "values": [{"measurement": "serum titre to the disulphide bridged cyclic peptide", "setting": "[1]", "result": "1/3200"}, {"measurement": "sera binding to pE3-42 amyloid peptide", "setting": "pE3-42 amyloid peptide", "result": "Minimal binding"}, {"measurement": "sera binding to 4-42 amyloid peptide", "setting": "4-42 amyloid peptide", "result": "Minimal binding"}]}, {"compound": "DAC*FRHDSGYEC*HH-[Cys]- amide (*S—CH2—S* bridged) [1-14 cyclic peptide (thioacetal bridged)]", "values": [{"measurement": "binding of TAP01 to the cyclic peptide (hairpin epitope)", "setting": "TAP01 (MoG1K) antibody; FIG. 7", "result": "able to bind"}, {"measurement": "binding to comparator antibody Bapineuzumab", "setting": "Bapineuzumab; FIGS. 7, 22, 26, 34", "result": "None of the comparator antibodies tested were able to bind"}, {"measurement": "binding to comparator antibody Solanezumab", "setting": "Solanezumab", "result": "None of the comparator antibodies tested were able to bind"}, {"measurement": "binding to comparator antibody BAN2401", "setting": "BAN2401", "result": "None of the comparator antibodies tested were able to bind"}, {"measurement": "binding to comparator antibody ProBioDrug 6_1_6", "setting": "ProBioDrug 6_1_6", "result": "None of the comparator antibodies tested were able to bind"}, {"measurement": "binding to comparator antibody ProBioDrug 24_2_3", "setting": "ProBioDrug 24_2_3", "result": "None of the comparator antibodies tested were able to bind"}, {"measurement": "titres of response compared with disulphide bridged peptide", "setting": "[2]; mice", "result": "higher titres"}, {"measurement": "serum titre to thioacetal bridged cyclic peptide", "setting": "[2]; mice 3 and 4, FIG. 13", "result": "1/24300"}, {"measurement": "serum titre to thioacetal bridged cyclic peptide", "setting": "[2]; mouse 2, FIG. 13", "result": "1/72900"}, {"measurement": "immune response after immunisation", "setting": "[2]; rabbits and mice, FIG. 13", "result": "immune response was generated"}, {"measurement": "stability compared with disulphide bridged cyclic peptide", "setting": "[3]", "result": "more chemically stable"}, {"measurement": "immune response, sera binding to biotinylated cyclised peptide", "setting": "[4]", "result": "good immune response"}]}, {"compound": "DAPFRHDSGYEVHH (Residue 3 (E to P))", "values": [{"measurement": "binding to TAP01 antibody", "setting": "TAP01 antibody", "result": "no binding observed"}]}, {"compound": "PPEFRHDSGYEVHH (Residue 1 and 2 (D to P and A to P))", "values": [{"measurement": "binding to TAP01 antibody", "setting": "TAP01 antibody", "result": "bind in a dose dependant manner"}]}, {"compound": "PPPFRHDSGYEVHH (Residue 1, 2 and 3 (D to P and A to P and E to P))", "values": [{"measurement": "binding to TAP01 antibody", "setting": "TAP01 antibody", "result": "bind in a dose dependant manner"}]}]}
